Measurements taken from US6432979B1, “Method of treating or inhibiting colonic polyps and colorectal cancer” (American Cyanamid Company, priority 1999, dated 2002).

Test system: intestinal polyps (adenomas)
Assay: in vivo standard pharmacological test procedure emulating familial adenomatous polyps (FAP) using the Min mouse; polyp count
Set-up: species or system Min mouse (C57BL/6J-Min/+)
Conditions: for Number of Polyps: 60 days
Description: The procedure described below emulates familial adenomatous polyps (FAP) in humans using the Min mouse (C57BL/6J-Min/+), which is a strain which has lost […] copies of the APC gene. These animals develop multiple intestinal polyps (adenomas) that ultimately progress to form adenocarcinomas. The polyps that develop in Min mice express EGFR and have activated COX-2. […] The following briefly describes the procedure used and the results obtained in this standard pharmacological test procedure.
The animals were treated for 60 days. The food was weighed once per week to determine consumption, and the animals also weighed weekly. On day 61, the animals were euthanized with CO2 inhalation, and the entire intestinal tract from stomach to anus was removed. The intestinal tract was injected with Bouins fixative, and allowed to fix for several days. The intestinal tracts were then opened and the number of polyps counted. Statistical analysis was performed using the Student's t-Test; a p value of ≦0.05 is considered statistically significant.
The above standard pharmacological test procedure was run again using (4-dimethylamino-but-2-enoic acid [4-(3-chloro-4-fluoro-phenylamino)-3-cyano-7-ethoxy-quinolin-6-yl]-amide as a representative EGFR kinase inhibitor, as follows. Test animals were divided into four treatment groups: Group I, control; Group II, (4-dimethylamino-but-2-enoic acid [4-(3-chloro-4-fluoro-phenylamino)-3-cyano-7-ethoxy-quinolin-6-yl]-amide Group III, sulindac; and Group IV, combination of sulindac and (4-dimethylamino-but-2-enoic acid [4-(3-chloro-4-fluoro-phenylamino)-3-cyano-7-ethoxy-quinolin 6-yl]-amide. The test compound was blended with a standard murine chow and animals were given ad libitum access to the food, in quantities corresponding to the following approximate daily dosages: Group II—20 mg/kg/(4-dimethylamino-but-2-enoic acid [4-(3-chloro-4-fluoro-phenylamino)-3-cyano-7-ethoxy-quinolin-6-yl]-amide, Group III—5 mg/kg/day sulindac; and Group IV—20 mg/kg/(4-dimethylamino-but-2-enoic acid [4-(3-chloro-4-fluoro-phenylamino)-3-cyano-7-ethoxy-quinolin-6-yl]-amide and 5 mg/kg/day sulindac. The animals were treated for 60 days. The food was weighed once per week to determnine consumption, and the animals also weighed weekly. On day 61, the animals were euthanized with CO2 inhalation, and the entire intestinal tract from stomach to anus was removed. The intestinal tract was injected with Bouins fixative, and allowed to fix for several days. The intestinal tracts were then opened and the number of polyps counted. Statistical analysis was performed using the Students t-Test; a p value of ≦0.05 is considered statistically significant.

Row | SMILES | Number of Polyps (first run, 20 mg/kg/day sulindac in chow, counted day 61, control 32.3 ± 20.7) | Number of Polyps (third run, 5 mg/kg/day sulindac in chow, control 19.5 ± 14.1) | reduction of polyp numbers (in words) (third run, sulindac alone at the 5 mg/kg dose) | Number of Polyps (first run, 40 mg/kg/day in chow, counted day 61, control 32.3 ± 20.7)
1 | CC1=C(CC(=O)O)c2cc(F)ccc2/C1=C\c1ccc([S+](C)[O-])cc1 (stereo not shown) [sulindac] | 10.0 ± 6.6 | 20.6 ± 11.8 | did not reduce polyp numbers at all | –
2 | CC#CC(=O)Nc1ccc2ncnc(Nc3cccc(Br)c3)c2c1 | – | – | – | 15.6 ± 10.6
